Experimental data: patent US20040086901A1, “Database for analyzing gene function and method of analyzing gene function by dspa” (priority 2000, published 2004)

How the values were obtained:
Format in all cases: cell-based, mouse
[1] = tested on: NIH3T3 cells overexpressing v-src; assay: MTT cell viability, v-src overexpressing cells vs parental line; conditions: v-src high-expressing cells / parental cell line, 3 to 4 days
Experimental: (§1) With regard to the function-known genes, the genes shown in the left column of Table 2 were used. With regard to the drugs, those shown in Table 1 were dissolved in DMSO to an extent of 100-fold of the maximum concentration for the search of the drugs and used. With regard to the cells, incubated NIH3T3 or ras-NIH3T3 cells were used.
(§2) Full-length cDNA of each function-known genes was incorporated into an expression vector (pRc-CMV, etc.) and transfected into NIH3T3 cells by a common method. Transformed cells were isolated using the resistance to G-418 as an index and the expression of the transfected gene in each cell was investigated by Western blotting method to select a highly expressing line.
(§3) Cell viabilities were measured according to the following procedures.
(§4) 1) From the 2nd to the 11th rows of a 96-well plate were filled with DMEM (50 μl). The 12th row was filled with 100 μl of DMEM.
(§5) 2) The 1st row was filled with 98 μl of DMEM.
(§6) 3) Drugs (2 μl each) were added into the 1st row.
(§7) 4) Continuous double-dilution was conducted from the 1st to the 9th rows. Fifty μl were taken out from the 9th row and discarded. The plate was preserved in a CO2 incubator.
(§8) 5) Cells (each high-expressing cells and the parental cell line) were detached from the medium using a trypsin solution, suspended in 10% CS-DMEM and transferred to a test tube and cell numbers (cell/ml) were counted.
(§9) 6) The cells were diluted to a concentration of 1×10^5 cells/ml, and 50 μl of the cell suspension were added to the 1st to the 11th rows of the plate followed by gently stirring.
(§10) 7) The plate was transferred to the CO2 incubator and incubated for 3 to 4 days.
(§11) 8) MTT (5 mg/ml in PBS) (10 μl) was added to the 1st to the 12th rows of the plate and incubated in the CO2 incubator at 37° C. for 4 hours.
(§12) 9) A reaction stop solution (0.04N HCl in isopropanol) (150 μl) was added followed by mixing well and being allowed to stand at room temperature for about 2 hours.
(§13) 10) Coloration of formazan which was a metabolite of the MTT dye was measured using a microplate reader. The measurement wavelength was 574 nm and the reference wavelength was 655 nm. The 10th and the 11th rows of the plate were 100% controls and the 12th row was a 0% control.
(§14) As an index for the sensitivity of highly gene-expressing cells and the parental cell line to various drugs, each of the IC40 values thereof was specified and ratios of the IC40 values were calculated. FIG. 2 and FIG. 3 are the examples where ratios of IC40 values were calculated from a curve showing the dependency on the concentration of the chemical versus the viability. After that, logarithmic values of ratios of IC40 values were calculated from each gene.

[2] = tested on: NIH3T3 cells overexpressing erbB2; assay: MTT cell viability, erbB2 overexpressing cells vs parental line; conditions: erbB2 high-expressing cells / parental cell line, 3 to 4 days
Experimental: as §1, §2, §3, §4, §5, §6, §7, §8, §9, §10, §11, §12, §13, §14

[3] = tested on: NIH3T3 cells overexpressing m-calpain; assay: MTT cell viability, m-calpain overexpressing cells vs parental line; conditions: m-calpain high-expressing cells / parental cell line, 3 to 4 days
Experimental: as §1, §2, §3, §4, §5, §6, §7, §8, §9, §10, §11, §12, §13
(§15) As an index for the sensitivity of highly gene-expressing cells and the parental cell line to various drugs, each of the IC40 values thereof was specified and ratios of the IC40 values were calculated. […] After that, logarithmic values of ratios of IC40 values were calculated from each gene.

[4] = tested on: NIH3T3 cells overexpressing cAMP-PK-CS; assay: MTT cell viability, cAMP-PK-CS overexpressing cells vs parental line; conditions: cAMP-PK-CS high-expressing cells / parental cell line, 3 to 4 days
Experimental: as §1, §2, §3, §4, §5, §6, §7, §8, §9, §10, §11, §12, §13, §15

[5] = tested on: NIH3T3 cells overexpressing CP-antisense; assay: MTT cell viability, CP-antisense cells vs parental line; conditions: 3 to 4 days
Experimental: as §1, §2, §3, §4, §5, §6, §7, §8, §9, §10, §11, §12, §13, §14

[6] = tested on: NIH3T3 cells overexpressing DAN; assay: MTT cell viability, DAN overexpressing cells vs parental line; conditions: DAN high-expressing cells / parental cell line, 3 to 4 days
Experimental: as §1, §2, §3, §4, §5, §6, §7, §8, §9, §10, §11, §12, §13, §14

[7] = tested on: NIH3T3 cells overexpressing cystatin E; assay: MTT cell viability, cystatin E overexpressing cells vs parental line; conditions: cystatin E high-expressing cells / parental cell line, 3 to 4 days
Experimental: as §1, §2, §3, §4, §5, §6, §7, §8, §9, §10, §11, §12, §13, §14

[8] = tested on: NIH3T3 cells overexpressing caspase-1; assay: MTT cell viability, caspase-1 overexpressing cells vs parental line; conditions: caspase-1 high-expressing cells / parental cell line, 3 to 4 days
Experimental: as §1, §2, §3, §4, §5, §6, §7, §8, §9, §10, §11, §12, §13, §15

[9] = tested on: NIH3T3 cells overexpressing RhoA; assay: MTT cell viability, RhoA overexpressing cells vs parental line; conditions: RhoA high-expressing cells / parental cell line, 3 to 4 days
Experimental: as §1, §2, §3, §4, §5, §6, §7, §8, §9, §10, §11, §12, §13, §14

[10] = tested on: NIH3T3 cells overexpressing PDGF-R; assay: MTT cell viability, PDGF-R overexpressing cells vs parental line; conditions: PDGF-R high-expressing cells / parental cell line, 3 to 4 days
Experimental: as §1, §2, §3, §4, §5, §6, §7, §8, §9, §10, §11, §12, §13, §14

[11] = tested on: NIH3T3 cells overexpressing CBP8; assay: MTT cell viability, CBP8 overexpressing cells vs parental line; conditions: CBP8 high-expressing cells / parental cell line, 3 to 4 days
Experimental: as §1, §2, §3, §4, §5, §6, §7, §8, §9, §10, §11, §12, §13, §14

[12] = tested on: NIH3T3 cells overexpressing PKCalpha-KN; assay: MTT cell viability, PKCalpha-KN overexpressing cells vs parental line; conditions: 3 to 4 days
Experimental: as §1, §2, §3, §4, §5, §6, §7, §8, §9, §10, §11, §12, §13, §15

[13] = tested on: NIH3T3 cells overexpressing PKCepsilon-KN; assay: MTT cell viability, PKCepsilon-KN overexpressing cells vs parental line; conditions: 3 to 4 days
Experimental: as §1, §2, §3, §4, §5, §6, §7, §8, §9, §10, §11, §12, §13, §15

[14] = tested on: NIH3T3 cells, TPA (PKC downreg); assay: MTT cell viability, TPA (PKC downreg) cells vs parental line; conditions: 3 to 4 days
Experimental: as §1, §2, §3, §4, §5, §6, §7, §8, §9, §10, §11, §12, §13, §14

[15] = tested on: NIH3T3 cells overexpressing p38-DN; assay: MTT cell viability, p38-DN overexpressing cells vs parental line; conditions: p38-DN high-expressing cells / parental cell line, 3 to 4 days
Experimental: as §1, §2, §3, §4, §5, §6, §7, §8, §9, §10, §11, §12, §13, §15

[16] = tested on: NIH3T3 cells overexpressing HSP4O; assay: MTT cell viability, HSP4O overexpressing cells vs parental line; conditions: HSP4O high-expressing cells / parental cell line, 3 to 4 days
Experimental: as §1, §2, §3, §4, §5, §6, §7, §8, §9, §10, §11, §12, §13, §14

[17] = tested on: NIH3T3 cells overexpressing CaMKIIa; assay: MTT cell viability, CaMKIIa overexpressing cells vs parental line; conditions: CaMKIIa high-expressing cells / parental cell line, 3 to 4 days
Experimental: as §1, §2, §3, §4, §5, §6, §7, §8, §9, §10, §11, §12, §13, §15

[18] = tested on: NIH3T3 cells overexpressing HNF1; assay: MTT cell viability, HNF1 overexpressing cells vs parental line; conditions: HNF1 high-expressing cells / parental cell line, 3 to 4 days
Experimental: as §1, §2, §3, §4, §5, §6, §7, §8, §9, §10, §11, §12, §13, §15

[19] = tested on: NIH3T3 cells overexpressing HNF3b; assay: MTT cell viability, HNF3b overexpressing cells vs parental line; conditions: HNF3b high-expressing cells / parental cell line, 3 to 4 days
Experimental: as §1, §2, §3, §4, §5, §6, §7, §8, §9, §10, §11, §12, §13, §15

[20] = tested on: NIH3T3 cells overexpressing HNF4; assay: MTT cell viability, HNF4 overexpressing cells vs parental line; conditions: HNF4 high-expressing cells / parental cell line, 3 to 4 days
Experimental: as §1, §2, §3, §4, §5, §6, §7, §8, §9, §10, §11, §12, §13, §15

[21] = PKCalpha-KN (first of two lines) high-expressing cells / parental cell line
[22] = PKCalpha-KN (second of two lines) high-expressing cells / parental cell line
[23] = PKCepsilon-KN (first of two lines) high-expressing cells / parental cell line
[24] = PKCepsilon-KN (second of two lines) high-expressing cells / parental cell line

Row | Compound | logarithmic value of ratio of IC40 values [1] | logarithmic value of ratio of IC40 values [2] | logarithmic value of ratio of IC40 values [3] | logarithmic value of ratio of IC40 values [4] | logarithmic value of ratio of IC40 values [5] | logarithmic value of ratio of IC40 values [6] | logarithmic value of ratio of IC40 values [7] | logarithmic value of ratio of IC40 values [8] | logarithmic value of ratio of IC40 values [9] | logarithmic value of ratio of IC40 values [10] | logarithmic value of ratio of IC40 values [11] | logarithmic value of ratio of IC40 values [12, 22] | logarithmic value of ratio of IC40 values [13, 23] | logarithmic value of ratio of IC40 values [14] | logarithmic value of ratio of IC40 values [15] | logarithmic value of ratio of IC40 values [16] | logarithmic value of ratio of IC40 values [17] | logarithmic value of ratio of IC40 values [18] | logarithmic value of ratio of IC40 values [19] | logarithmic value of ratio of IC40 values [20] | other results
1 | ICE inhibitor-III [ICEin-3] | −0.14 | 0.18 | −0.06 | 0.00 | −0.19 | 0.00 | 0.07 | 0.11 | 0.19 | 0.20 | 0.18 | 0.33 | −0.21 | −0.09 | −0.11 | 0.11 | 0.00 | 0.20 | −0.09 | 0.00 | logarithmic value of ratio of IC40 values [12, 21]: 0.12; logarithmic value of ratio of IC40 values [13, 24]: 0.33
2 | C=CC1=C(C)c2cc3[n-]c(cc4nc(cc5[n-]c(cc1n2)c(C)c5CCC(=O)O)C(CCC(=O)O)=C4C)c(C)c3C=C.[Cl-].[Cl-].[Sn+4] [SnPP] | −0.17 | −0.25 | −0.07 | 0.02 | 0.10 | −0.49 | 0.11 | −0.15 | 0.14 | −0.07 | 0.56 | 0.00 | 0.27 | −0.20 | 0.10 | 0.28 | 0.24 | 0.138 | 0.24 | 0.46 | logarithmic value of ratio of IC40 values [12, 21]: −0.14; logarithmic value of ratio of IC40 values [13, 24]: 0.24
3 | O=CN/C=C/c1cc(O)ccc1O [Erbstatin, erbstatin] | −0.05 | −0.05 | 0.00 | 0.05 | 0.06 | 0.20 | −0.06 | −0.22 | 0.14 |  | 0.14 | 0.00 | −0.12 | 0.00 | 0.06 | 0.00 | 0.14 | 0.391 | −0.03 | 2.00 | logarithmic value of ratio of IC40 values [13, 24]: 0.00
4 | CN[C@@H]1C[C@H]2O[C@@](C)([C@@H]1OC)n1c3ccccc3c3c4c(c5c6ccccc6n2c5c31)C(=O)NC4 [Staurosporine] | −0.05 | 0.04 |  | −0.12 | −0.15 | 0.48 | 0.40 | 0.22 | 0.15 | 0.24 | 0.19 |  |  | −0.12 | −0.05 | 0.30 | 0.12 |  |  | 0.04 | 
5 | CC(C)(C)C(=O)Oc1ccc(S(=O)(=O)Nc2ccccc2C(=O)NCC(=O)O)cc1 [compound 5046] | 0.51 | 0.80 | −0.04 |  | −0.06 | 0.26 | 0.36 | 0.40 | 0.11 | 0.36 | 0.12 | −0.05 | −0.21 | −0.10 | −0.04 | −0.15 |  | 0.05 | −0.25 |  | logarithmic value of ratio of IC40 values [12, 21]: 0.10
6 | Nc1nc2nc[nH]c2c(=S)[nH]1 [6-TG, 6-thioguanine] | 0.00 | −0.12 | 0.29 | 0.14 | 0.14 | 0.64 | 0.00 |  | 0.69 | 0.22 | 0.38 | 0.38 | 0.00 | 0.00 |  | 0.50 | 0.00 | 0.46 | 0.03 | 0.00 | logarithmic value of ratio of IC40 values [12, 21]: 0.26; logarithmic value of ratio of IC40 values [13, 24]: 0.00
